Test results: ChEMBL document CHEMBL1201862, “PubChem BioAssay data set” (2004)
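Briefly, cells in 96-well plates were exposed to five compound concentrations for 48 h, and endpoints were estimated by linear interpolation. GI50 marks 50% less growth.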 The source made the active and inactive calls. No stated cut-off is given here; in the data, active = GI50 up to about 1.1 µM and inactive = higher. Square brackets hold non-standard residues; d marks the D form. Peptide text beside a SMILES is read from it. Phe(4-Cl) = N[CH](Cc1ccc(Cl)cc1)C(=O)O; 2Nal = N[CH](Cc1ccc2ccccc2c1)C(=O)O; 3Pal = N[CH](Cc1cccnc1)C(=O)O

How the values were obtained:
Test in all cases: NCI tumour cell line growth inhibition, 48 h
A498 = test system: A498
HCT-116 = test system: HCT-116
HCT-15 = test system: HCT-15
KM12 = test system: KM12
MCF7 = test system: MCF7
NCI-H226 = test system: NCI-H226
NCI-H23 = test system: NCI-H23
NCI-H522 = test system: NCI-H522
OVCAR-4 = test system: OVCAR-4
SF-268 = test system: SF-268
SK-MEL-28 = test system: SK-MEL-28
SN12C = test system: SN12C
SNB-75 = test system: SNB-75
SW-620 = test system: SW-620
U-251 = test system: U-251
UACC-62 = test system: UACC-62
UO-31 = test system: UO-31
RPMI-8226 = test system: RPMI-8226
HOP-92 = test system: HOP-92
LOX IMVI = test system: LOX IMVI

Structure (SMILES)	GI50 (A498)	GI50 (HCT-116)	GI50 (HCT-15)	GI50 (KM12)	GI50 (MCF7)	GI50 (NCI-H226)	GI50 (NCI-H23)	GI50 (NCI-H522)	GI50 (OVCAR-4)	GI50 (SF-268)	GI50 (SK-MEL-28)	GI50 (SN12C)	GI50 (SNB-75)	GI50 (SW-620)	GI50 (U-251)	GI50 (UACC-62)	GI50 (UO-31)	GI50 (RPMI-8226)	GI50 (HOP-92)	GI50 (LOX IMVI)
O=[N+]([O-])c1ccc2c(c1)C(N1CCN(CCO)CC1)Cc1ccc(F)cc1S2 (stereo unspecified)	11.6 µM (inactive)	5 µM (inactive)	5.93 µM	6.64 µM (inactive)	10.1 µM (inactive)	9.1 µM (inactive)	13.5 µM (inactive)	3.48 µM (inactive)	12.4 µM (inactive)	13.5 µM (inactive)	1.96 µM (inactive)	11.5 µM (inactive)	2.05 µM (inactive)	4.95 µM (inactive)	10.1 µM (inactive)	2.49 µM (inactive)	4.39 µM (inactive)			
COc1cc(Cn2c3c(c4c(C(=O)NCCN(C)C)c(O)ccc42)C(=O)c2ccccc2C3=O)cc(OC)c1	1.95 µM (inactive)	1.76 µM (inactive)	1.88 µM	1.58 µM (inactive)	2 µM (inactive)	6.87 µM (inactive)	2.09 µM (inactive)	1.71 µM (inactive)	1.71 µM (inactive)	1.99 µM (inactive)	1.9 µM (inactive)	1.85 µM (inactive)	1.91 µM (inactive)		1.64 µM (inactive)	1.91 µM (inactive)	1.71 µM (inactive)	1.87 µM (inactive)		
Cc1cc(C)nc(SCC(=O)OC2CC(C)CCC2C(C)C)n1 (stereo unspecified)	18.1 µM (inactive)	19.2 µM (inactive)	15.6 µM	20.1 µM (inactive)	23.3 µM (inactive)		24.8 µM (inactive)	18.8 µM (inactive)	20.9 µM (inactive)	37 µM (inactive)	26 µM (inactive)	19.1 µM (inactive)	21 µM (inactive)	19.9 µM (inactive)	22.5 µM (inactive)	14.6 µM (inactive)	18.7 µM (inactive)	19.3 µM (inactive)	26 µM (inactive)	20 µM (inactive)
O=C(Nc1nc2ccc([N+](=O)[O-])cc2[n+]([O-])n1)C(F)(F)F	29.6 µM (inactive)	19.8 µM (inactive)	16.6 µM	29.1 µM (inactive)	20 µM (inactive)	49.8 µM (inactive)	26.2 µM (inactive)	21 µM (inactive)	26.3 µM (inactive)	62.4 µM (inactive)	47.2 µM (inactive)	29.4 µM (inactive)	46.2 µM (inactive)	37.6 µM (inactive)	30.2 µM (inactive)	21.3 µM (inactive)	40.8 µM (inactive)	15 µM (inactive)	56.1 µM (inactive)	
CC[C@@H]1/C=C/C=C/C[C@H](C)[C@@H](O)[C@@H](C)C(=O)[C@H](C)[C@@H](O)[C@H](C)C(=O)[C@H](C)[C@@H](O)[C@H](C)/C=C/C(=O)O[C@H]2[C@@H](C)[C@@H](CC1)O[C@@]1(CC[C@@H](C)[C@@H](CC(C)O)O1)[C@@H]2C (stereo partly specified)	0.0989 µM (active)	2.58 µM (inactive)	4.06 µM	3.41 µM (inactive)	0.00269 µM (active)		0.00361 µM (active)	0.0188 µM (active)	0.057 µM (active)	6.98 µM (inactive)	10.6 µM (inactive)	1.94 µM (inactive)	0.253 µM (active)	5.32 µM (inactive)	0.00361 µM (active)	3.32 µM (inactive)		0.057 µM (active)	3.25 µM (inactive)	5.83 µM (inactive)
O=C(O)CSC(CC(=O)c1ccc(Cl)cc1)c1ccc(Cl)cc1 (stereo unspecified)	41.6 µM (inactive)	5.77 µM (inactive)	22.1 µM	8.07 µM (inactive)	22.2 µM (inactive)		42.7 µM (inactive)	14.7 µM (inactive)	27.4 µM (inactive)	25.1 µM (inactive)		43 µM (inactive)	49.8 µM (inactive)	4.17 µM (inactive)	29 µM (inactive)	39.2 µM (inactive)	34.6 µM (inactive)	6.95 µM (inactive)	25.8 µM (inactive)	17.3 µM (inactive)
O=C(Nc1ccc(Cl)cc1)c1cc(S(=O)(=O)Nc2n[nH]c(=O)n2-c2ccccc2)c(S)cc1Cl	> 100 µM (inactive)	> 100 µM (inactive)	> 100 µM	> 100 µM (inactive)	> 100 µM (inactive)	> 100 µM (inactive)	> 100 µM (inactive)		> 100 µM (inactive)	> 100 µM (inactive)	> 100 µM (inactive)	> 100 µM (inactive)		> 100 µM (inactive)	> 100 µM (inactive)	> 100 µM (inactive)	> 100 µM (inactive)	> 100 µM (inactive)	> 100 µM (inactive)	> 100 µM (inactive)
CS(=O)(=O)OCCn1c(=O)n(CCOS(C)(=O)=O)c(=O)n(CCOS(C)(=O)=O)c1=O	> 100 µM (inactive)	> 100 µM (inactive)	> 100 µM	> 100 µM (inactive)	> 100 µM (inactive)	> 100 µM (inactive)	> 100 µM (inactive)		> 100 µM (inactive)	> 100 µM (inactive)	> 100 µM (inactive)	> 100 µM (inactive)	> 100 µM (inactive)	> 100 µM (inactive)	> 100 µM (inactive)	> 100 µM (inactive)	> 100 µM (inactive)	> 100 µM (inactive)		36.3 µM (inactive)
CC(=O)Oc1ccc(C2SCc3nc4ccccc4n32)cc1 (stereo unspecified)	27.2 µM (inactive)	23.3 µM (inactive)	25.8 µM	15.3 µM (inactive)	8 µM (inactive)		16.3 µM (inactive)	22.8 µM (inactive)	24.4 µM (inactive)	21 µM (inactive)	52.7 µM (inactive)	49.8 µM (inactive)	19.9 µM (inactive)	35.8 µM (inactive)	25.6 µM (inactive)	29.7 µM (inactive)	8.57 µM (inactive)	14.5 µM (inactive)	25.2 µM (inactive)	29.6 µM (inactive)
O=[N+]([O-])/C(C(Cl)=C(Cl)Cl)=C(\N1CCOCC1)n1nnc2ccccc21	16.9 µM (inactive)	18.7 µM (inactive)	15.4 µM	20.2 µM (inactive)	19.7 µM (inactive)	26.8 µM (inactive)	16.7 µM (inactive)	16 µM (inactive)	27.2 µM (inactive)	18.3 µM (inactive)	22.5 µM (inactive)	19.3 µM (inactive)	17.5 µM (inactive)		16.7 µM (inactive)	23.3 µM (inactive)	17.8 µM (inactive)	52.6 µM (inactive)	18.3 µM (inactive)	
Fc1ccc2c3c([nH]c2c1)CCN(Cc1ccccc1)C3	17.8 µM (inactive)	18.6 µM (inactive)	21.1 µM	15.3 µM (inactive)	16.7 µM (inactive)	19 µM (inactive)	20.9 µM (inactive)		24.6 µM (inactive)	21 µM (inactive)	16.7 µM (inactive)	19.2 µM (inactive)	16.9 µM (inactive)	20.1 µM (inactive)	19.7 µM (inactive)	18.2 µM (inactive)	12.2 µM (inactive)	27.7 µM (inactive)	5.33 µM (inactive)	16.9 µM (inactive)
CC1(C)OCC(C(O)C2OC(C)(C)OC2C=O)O1 (stereo unspecified)	> 100 µM (inactive)	> 100 µM (inactive)	> 100 µM	> 100 µM (inactive)	> 100 µM (inactive)	> 100 µM (inactive)	> 100 µM (inactive)		> 100 µM (inactive)	> 100 µM (inactive)	> 100 µM (inactive)	> 100 µM (inactive)	> 100 µM (inactive)	> 100 µM (inactive)	> 100 µM (inactive)	> 100 µM (inactive)	> 100 µM (inactive)	> 100 µM (inactive)		> 100 µM (inactive)
CC(C(=O)O)C1Nc2ccccc2NC1=O (stereo unspecified)	> 100 µM (inactive)	> 100 µM (inactive)	> 100 µM	> 100 µM (inactive)	> 100 µM (inactive)	> 100 µM (inactive)	> 100 µM (inactive)		> 100 µM (inactive)	> 100 µM (inactive)	> 100 µM (inactive)		> 100 µM (inactive)	> 100 µM (inactive)	> 100 µM (inactive)	> 100 µM (inactive)	> 100 µM (inactive)	37.4 µM (inactive)	> 100 µM (inactive)	> 100 µM (inactive)
C=C(C)/C=C/C(O)[C@](C)(O)[C@H]1[C@H](O)C[C@@]2(C)[C@@H]3CCc4c(cc(OC5OC(CO)C(O)C(O)C5O)c(O)c4C)C3(C)C(=O)C[C@]12C (stereo partly specified)	> 100 µM (inactive)	> 100 µM (inactive)	> 100 µM	> 100 µM (inactive)	> 100 µM (inactive)	> 100 µM (inactive)	64.4 µM (inactive)	> 100 µM (inactive)	> 100 µM (inactive)	> 100 µM (inactive)	> 100 µM (inactive)	> 100 µM (inactive)	> 100 µM (inactive)	> 100 µM (inactive)	> 100 µM (inactive)	49 µM (inactive)	> 100 µM (inactive)		> 100 µM (inactive)	> 100 µM (inactive)
CC(=O)NC(Cc1ccc2ccccc2c1)C(=O)NC(Cc1ccc(Cl)cc1)C(=O)NC(Cc1cccnc1)C(=O)NC(CO)C(=O)NC(Cc1ccc(O)cc1)C(=O)NC(CCCN=C(N)N)C(=O)NC(CC(C)C)C(=O)NC(CCCN=C(N)N)C(=O)N1CCCC1C(=O)NC(C)C(N)=O (stereo unspecified) (Ac-[2Nal][Phe(4-Cl)][3Pal]SYRLRPA-NH2; configuration not given here)	> 100 µM (inactive)		> 100 µM	> 100 µM (inactive)	> 100 µM (inactive)	> 100 µM (inactive)	> 100 µM (inactive)	> 100 µM (inactive)	> 100 µM (inactive)			> 100 µM (inactive)	88.9 µM (inactive)	> 100 µM (inactive)	> 100 µM (inactive)	77.4 µM (inactive)	> 100 µM (inactive)	> 100 µM (inactive)	> 100 µM (inactive)	
